The values below come from publication PMC11117929, “Benzamide Trimethoprim Derivatives as Human Dihydrofolate Reductase Inhibitors—Molecular Modeling and In Vitro Activity Study” (Biomedicines, 2024).

The target in one test is T1, recombinant human DHFR (Homo sapiens, UniProt P00374).
T1 construct: purchased Sigma Aldrich (St. Louis, MO, USA)
T1 sequence (P00374 1-187): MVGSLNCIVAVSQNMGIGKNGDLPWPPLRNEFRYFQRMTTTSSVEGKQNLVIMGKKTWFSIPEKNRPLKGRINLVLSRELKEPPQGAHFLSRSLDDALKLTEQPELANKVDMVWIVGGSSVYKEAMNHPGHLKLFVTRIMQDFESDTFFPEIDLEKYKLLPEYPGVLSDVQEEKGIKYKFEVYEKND
Description: Dihydrofolate reductase (DHFR) inhibition assay (assay kit). The note with it: mean of three assays ± S.D. It counts as biochemical. The text has this: All reagents were purchased from Fluka (Sigma-Aldrich, Poznań, Poland), Merck (Darmstadt, Germany), or Alfa Aesar (Karlsruhe, Germany) and used without further purification. Dichloromethane (DCM) and dimethylformamide (DMF) were stored in 4 Å molecular sieves. The Dihydrofolate Reductase Assay Kit was purchased from Sigma Aldrich (St. Louis, MO, USA).
The inhibition of dihydrofolate reductase by the new TMP analogs, that is, determining their effect on the activity of recombinant human DHFR, was tested according to the instructions provided by the manufacturer and used previously.
In all experiments, the mean values for three assays ± standard deviations (S.D.) were calculated. The results were submitted to statistical analysis using the Student’s t-test. Differences were considered significant at p < 0.05.

For test [1], the target named is acetylcholinesterase (AChE). Also on record: method as in PMID 37834347. As to conditions: cited from earlier work.
In a further test the target is β-secretase (BACE1). Also on record: method as in PMID 37834347. As to conditions: cited from earlier work.
A further test concerns various cancer cells. Also on record: method as in PMID 36680987. As to conditions: cited from earlier work.
The next test concerns plasmid DNA. The note with it: ethidium bromide displacement, netropsin as standard; cited from earlier work.

As usually defined, the IC50 is the concentration that gives 50% inhibition. Turning to `COc1cc(C(=O)Nc2cccc(NC(=O)c3cc(OC)c(OC)c(OC)c3)c2)cc(OC)c1OC` [JW1], the IC50 at recombinant human DHFR is 8.5 ± 0.06 µM.
On to `COc1cc(OC)cc(C(=O)Nc2cccc(NC(=O)c3cc(OC)cc(OC)c3)c2)c1` [JW2], for which the IC50 at recombinant human DHFR was determined as 10.15 ± 0.02 µM.
Turning to `COc1ccc(C(=O)Nc2cccc(NC(=O)c3ccc(OC)c(OC)c3)c2)cc1OC` [JW3], at recombinant human DHFR, the IC50 was 9.83 ± 0.03 µM.
Same read-out and setting: in the case of `COc1ccc(C(=O)Nc2cccc(NC(=O)c3ccc(OC)cc3)c2)cc1` [JW4] it was 15.3 ± 0.04 µM; in that of `COc1cc(C(=O)Nc2ccc(NC(=O)c3cc(OC)c(OC)c(OC)c3)cc2)cc(OC)c1OC` [JW5], 4.8 ± 0.05 µM; in that of `COc1cc(OC)cc(C(=O)Nc2ccc(NC(=O)c3cc(OC)cc(OC)c3)cc2)c1` [JW6], 4.72 ± 0.05 µM.
Turning to `COc1ccc(C(=O)Nc2ccc(NC(=O)c3ccc(OC)c(OC)c3)cc2)cc1OC` [JW7], the IC50 at recombinant human DHFR stood at 8.13 ± 0.06 µM.
In the case of `COc1ccc(C(=O)Nc2ccc(NC(=O)c3ccc(OC)cc3)cc2)cc1` [JW8], the IC50 was 12.15 ± 0.02 µM on recombinant human DHFR, 56 nM in test [1] and 9.01 µM at β-secretase (BACE1).
Take `COc1cc(C(=O)Nc2cccc([N+](=O)[O-])c2)cc(OC)c1OC` [MB1]: the IC50 at recombinant human DHFR stood at 10.16 ± 0.01 µM.
Consider `COc1cc(NC(=O)c2cc(OC)c(OC)c(OC)c2)cc(OC)c1OC` [MB3], for which the IC50 on recombinant human DHFR amounted to 9.17 ± 0.01 µM. Besides, the antiproliferative activity result with various cancer cells is reported as “showed antiproliferative activity”.
Take `COc1cc(CNC(=O)c2cc(OC)c(OC)c(OC)c2)cc(OC)c1OC` [MB4]: the IC50 on recombinant human DHFR was found to be 20.17 ± 0.03 µM. Further, in the test with various cancer cells, the antiproliferative activity result is on record as “showed antiproliferative activity”.
For the compound `COc1cc(Cc2cnc(N)nc2N)cc(OC)c1OC` [TMP, trimethoprim], in the test with plasmid DNA, the “binding to plasmid DNA” value was “does not bind to the plasmid”.
